Measured values published in ChEMBL document CHEMBL3870306, “Selenoureido-iminosugars: A new family of multitarget drugs” (Eur J Med Chem, 2016).

What was measured:
[1] = Glutathione peroxidase like activity assessed as hydrogen peroxide reduction by measuring reaction rate at 0.1 mM measured for 180 sec in presence of PhSH relative to control
[2] = Glutathione peroxidase like activity assessed as hydrogen peroxide reduction by measuring compound Km measured for 180 sec in prescence of varying levels of Phsh by Hanes-Woof plot method
[3] = Glutathione peroxidase like activity assessed as hydrogen peroxide reduction by measuring Kcat to Kuncat ratio measured for 180 sec in prescence of varying levels of Phsh by Hanes-Woof plot method
[4] = Glutathione peroxidase like activity assessed as hydrogen peroxide reduction by measuring compound Kcat measured for 180 sec in prescence of varying levels of Phsh by Hanes-Woof plot method
[5] = Glutathione peroxidase like activity assessed as hydrogen peroxide reduction by measuring compound Vmax measured for 180 sec in prescence of varying levels of Phsh by Hanes-Woof plot method
[6] = Antiproliferative activity against human A549 cells after 48 hrs by sulforhodamine B assay; type: functional; conditions: A549, 48 h
[7] = Inhibition of Bakers yeast alpha-glucosidase using o-orp-nitrophenyl-glycopyranoside as substrate by Lineweaver-Burk plot method; parameters: species or system Saccharomyces cerevisiae
Saccharomyces cerevisiae = experiment: Inhibition of Bakers yeast alpha-glucosidase at 500 uM using o-orp-nitrophenyl-glycopyranoside as substrate measured for 120 sec relative to control
[8] = Antiproliferative activity against human T47D cells after 48 hrs by sulforhodamine B assay; type: functional
[9] = target: Acetylcholinesterase (Electrophorus electricus) (UniProt O42275); experiment: Inhibition of electric eel acetylcholinesterase at 500 uM assessed as thep-nitrophenolate formation measured for 120 sec relative to control
Sequence of Acetylcholinesterase (Electrophorus electricus) (O42275 24-633 limits assumed): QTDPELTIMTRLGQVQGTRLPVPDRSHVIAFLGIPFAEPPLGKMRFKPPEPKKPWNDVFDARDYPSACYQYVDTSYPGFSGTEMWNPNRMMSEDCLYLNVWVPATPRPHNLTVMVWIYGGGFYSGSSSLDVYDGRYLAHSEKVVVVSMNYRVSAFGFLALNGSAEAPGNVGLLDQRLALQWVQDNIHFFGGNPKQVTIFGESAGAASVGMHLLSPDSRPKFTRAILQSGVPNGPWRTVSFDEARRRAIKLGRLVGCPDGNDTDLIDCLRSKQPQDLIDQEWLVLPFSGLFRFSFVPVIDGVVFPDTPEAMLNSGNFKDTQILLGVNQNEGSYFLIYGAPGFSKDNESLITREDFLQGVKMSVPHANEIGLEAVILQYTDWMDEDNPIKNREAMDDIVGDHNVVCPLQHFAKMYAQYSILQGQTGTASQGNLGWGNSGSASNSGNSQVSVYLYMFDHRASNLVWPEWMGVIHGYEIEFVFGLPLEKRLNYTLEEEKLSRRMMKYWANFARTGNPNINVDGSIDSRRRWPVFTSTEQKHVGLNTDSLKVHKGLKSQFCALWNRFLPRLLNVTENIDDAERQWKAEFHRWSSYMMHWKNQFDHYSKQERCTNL

Acetylcholinesterase [10] = target: T1, Acetylcholinesterase (Electrophorus electricus, UniProt O42275); experiment: Mixed-type inhibition of electric eel acetylcholinesterase assessed as enzyme-inhibitor complex by Lineweaver-Burk plot method
T1 sequence (O42275 whole entry): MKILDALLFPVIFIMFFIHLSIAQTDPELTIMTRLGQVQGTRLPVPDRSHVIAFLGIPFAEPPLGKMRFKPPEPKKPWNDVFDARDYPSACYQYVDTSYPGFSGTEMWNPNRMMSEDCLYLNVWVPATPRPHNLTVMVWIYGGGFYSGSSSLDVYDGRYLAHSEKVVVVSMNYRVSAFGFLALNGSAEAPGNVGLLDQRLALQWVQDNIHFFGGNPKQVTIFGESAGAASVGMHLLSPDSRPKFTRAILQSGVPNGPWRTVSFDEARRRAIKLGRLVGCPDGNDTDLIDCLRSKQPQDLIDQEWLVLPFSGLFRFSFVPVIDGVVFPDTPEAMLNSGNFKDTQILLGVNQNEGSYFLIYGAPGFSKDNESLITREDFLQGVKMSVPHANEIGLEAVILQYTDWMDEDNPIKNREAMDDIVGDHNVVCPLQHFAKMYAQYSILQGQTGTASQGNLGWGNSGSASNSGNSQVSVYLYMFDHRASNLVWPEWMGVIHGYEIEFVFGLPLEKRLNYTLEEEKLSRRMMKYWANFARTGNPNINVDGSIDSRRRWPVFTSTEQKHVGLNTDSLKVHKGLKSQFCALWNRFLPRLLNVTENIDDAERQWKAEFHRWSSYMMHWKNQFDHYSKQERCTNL

[11] = Antiproliferative activity against human SW1573 cells after 48 hrs by sulforhodamine B assay; type: functional; conditions: SW1573, 48 h
Acetylcholinesterase [12] = target: T1, Acetylcholinesterase; experiment: Mixed-type inhibition of electric eel acetylcholinesterase assessed as enzyme-substrate-inhibitor complex by Lineweaver-Burk plot method
Aspergillus oryzae = experiment: Inhibition of Aspergillus oryzae beta-galactosidase at 0.5 mM using o-orp-nitrophenyl-glycopyranoside as substrate measured for 120 sec relative to control
Prunus dulcis = experiment: Inhibition of almond beta-glucosidase at 500 uM using o-orp-nitrophenyl-glycopyranoside as substrate measured for 120 sec relative to control
[13] = target: T2, Alpha-mannosidase (Canavalia ensiformis) (UniProt C0HJB3); experiment: Inhibition of jack bean alpha-mannosidase at 0.5 mM using o-orp-nitrophenyl-glycopyranoside as substrate measured every 30 sec for 3 mins relative to control
T2 sequence (whole entry): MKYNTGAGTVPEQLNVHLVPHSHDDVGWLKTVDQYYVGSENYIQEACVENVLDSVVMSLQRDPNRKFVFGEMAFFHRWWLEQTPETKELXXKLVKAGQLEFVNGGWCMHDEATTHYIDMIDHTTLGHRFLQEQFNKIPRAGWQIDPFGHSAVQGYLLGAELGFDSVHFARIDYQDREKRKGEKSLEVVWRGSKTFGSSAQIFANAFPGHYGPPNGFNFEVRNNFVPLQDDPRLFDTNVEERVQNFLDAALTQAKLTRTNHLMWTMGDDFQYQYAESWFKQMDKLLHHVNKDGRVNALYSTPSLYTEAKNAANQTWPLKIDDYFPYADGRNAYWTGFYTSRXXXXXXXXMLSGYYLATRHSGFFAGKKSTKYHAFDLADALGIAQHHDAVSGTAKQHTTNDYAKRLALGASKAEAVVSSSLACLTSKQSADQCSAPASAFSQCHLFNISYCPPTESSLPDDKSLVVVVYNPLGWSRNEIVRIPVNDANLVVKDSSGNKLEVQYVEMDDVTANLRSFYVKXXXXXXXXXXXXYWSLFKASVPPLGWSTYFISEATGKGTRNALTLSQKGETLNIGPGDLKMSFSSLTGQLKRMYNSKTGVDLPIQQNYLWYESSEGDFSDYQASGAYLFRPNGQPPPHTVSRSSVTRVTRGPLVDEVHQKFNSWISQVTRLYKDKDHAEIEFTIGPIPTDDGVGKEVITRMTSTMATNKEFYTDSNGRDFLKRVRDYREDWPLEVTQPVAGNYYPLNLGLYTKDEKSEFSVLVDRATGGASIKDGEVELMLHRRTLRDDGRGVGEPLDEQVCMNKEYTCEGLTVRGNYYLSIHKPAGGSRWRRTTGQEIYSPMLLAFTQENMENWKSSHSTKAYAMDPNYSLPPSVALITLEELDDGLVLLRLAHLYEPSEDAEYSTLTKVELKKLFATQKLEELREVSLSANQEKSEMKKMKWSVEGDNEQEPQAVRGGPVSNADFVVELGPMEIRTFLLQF

[14] = Competitive inhibition of almond beta-glucosidase using o-orp-nitrophenyl-glycopyranoside as substrate by Lineweaver-Burk plot method; parameters: species or system Prunus dulcis
[15] = target: Alpha-galactosidase (Coffea arabica) (UniProt Q42656); experiment: Inhibition of green coffee beans alpha-galactosidase at 0.5 mM using o-orp-nitrophenyl-glycopyranoside as substrate measured for 120 sec relative to control
Sequence of Alpha-galactosidase (Coffea arabica) (Q42656 16-378 limits assumed): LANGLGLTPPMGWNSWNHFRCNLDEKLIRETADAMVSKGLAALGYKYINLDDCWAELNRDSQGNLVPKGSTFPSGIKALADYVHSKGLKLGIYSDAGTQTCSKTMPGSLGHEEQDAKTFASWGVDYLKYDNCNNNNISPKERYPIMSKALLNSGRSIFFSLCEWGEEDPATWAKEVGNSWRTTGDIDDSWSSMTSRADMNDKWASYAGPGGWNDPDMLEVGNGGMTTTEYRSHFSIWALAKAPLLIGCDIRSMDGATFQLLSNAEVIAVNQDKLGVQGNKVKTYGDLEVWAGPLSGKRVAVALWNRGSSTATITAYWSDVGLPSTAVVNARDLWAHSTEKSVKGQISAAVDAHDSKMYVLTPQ

Alpha-mannosidase [16] = target: T3, Alpha-mannosidase (Canavalia ensiformis, UniProt C0HJB3); experiment: Inhibition of jack bean alpha-mannosidase using o-orp-nitrophenyl-glycopyranoside as substrate by Lineweaver-Burk plot method
T3 sequence (C0HJB3 whole entry): T2 sequence (whole entry)

Helix pomatia = experiment: Inhibition of Helix-pomatia beta-mannosidase at 0.5 mM using o-orp-nitrophenyl-glycopyranoside as substrate measured every 30 sec for 3 mins relative to control
Escherichia coli = experiment: Inhibition of Escherichia coli beta-galactosidase at 0.5 mM using o-orp-nitrophenyl-glycopyranoside as substrate measured for 120 sec relative to control
[17] = Antiproliferative activity against human HBL100 cells after 48 hrs by sulforhodamine B assay; type: functional; conditions: HBL-100, 48 h
[18] = Antiproliferative activity against human HeLa cells after 48 hrs by sulforhodamine B assay; type: functional
[19] = Antiproliferative activity against human WiDr cells after 48 hrs by sulforhodamine B assay; type: functional
[20] = Glutathione peroxidase like activity assessed as hydrogen peroxide reduction by measuring reaction rate at 0.1 mM measured for 180 sec in presence of PhSH relative to (PhSe)2
Alpha-mannosidase [21] = target: T3, Alpha-mannosidase; experiment: Mixed-type inhibition of jack bean alpha-mannosidase assessed as enzyme-substrate-inhibitor complex using o-orp-nitrophenyl-glycopyranoside as substrate by Lineweaver-Burk plot method
Alpha-mannosidase [22] = target: T3, Alpha-mannosidase; experiment: Mixed-type inhibition of jack bean alpha-mannosidase assessed as enzyme-inhibitor complex using o-orp-nitrophenyl-glycopyranoside as substrate by Lineweaver-Burk plot method
[23] = Selectivity ratio of Ki for Bakers yeast alpha-glucosidase to Ki for almond beta-glucosidase
[24] = Inhibition of almond beta-glucosidase using p-Nitrophenyl beta-D-glucopyranoside as substrate; parameters: species or system Prunus dulcis
[25] = Inhibition of Bakers yeast alpha-glucosidase using p-Nitrophenyl alpha-D-glucopyranoside as substrate; parameters: species or system Saccharomyces cerevisiae

For `O=c1c2ccccc2[se]n1-c1ccccc1`, the fold change (FC) [1] was 0.6.

`c1ccc([Se][Se]c2ccccc2)cc1` gave a fold change (FC) [1] of 2.5, a Km [2] of 1110 µM and a Ratio [3] of 82. For the same compound, the kcat [4] was 0.0045 s⁻¹ and the Vmax [5] was 27.3 µM/min.

Work on `COc1ccc(NC(=[Se])NCCCCCN2C[C@H](O)[C@@H](O)[C@H](O)[C@H]2CO)cc1` yielded a GI50 [6] of 42 µM, a Ki [7] of 36 µM and an inhibition (Saccharomyces cerevisiae) of over 50%. The GI50 [8] was 58 µM, the inhibition [9] was over 50% and the Ki (Acetylcholinesterase [10]) was 83.1 µM. For the same compound, the GI50 [11] was 46 µM, the Km [2] was 410 µM and the Ki (Acetylcholinesterase [12]) was 58.8 µM. It also gave an inhibition (Aspergillus oryzae) of 29%, a Ratio [3] of 640 and an inhibition (Prunus dulcis) of over 50%. It also gave an inhibition [13] of over 50%, a Ki [14] of 5.5 µM and an inhibition [15] of 20%. The Ki (Alpha-mannosidase [16]) was 510 µM, the inhibition (Helix pomatia) was 7% and the inhibition (Escherichia coli) was 15%. It also gave a GI50 [17] of 42 µM, a kcat [4] of 0.035 s⁻¹ and a GI50 [18] of 82 µM. For the same compound, the GI50 [19] was over 100 µM and the Vmax [5] was 211 µM/min.

With `c1ccc(COC[C@H]2NC[C@H](OCc3ccccc3)[C@@H](OCc3ccccc3)[C@@H]2OCc2ccccc2)cc1` the fold change (FC) [20] was 18 and the fold change (FC) [1] was 23.6 to 46.1.

Work on `Cc1ccc(NC(=[Se])NCCCCCN2C[C@H](O)[C@@H](O)[C@H](O)[C@H]2CO)cc1` yielded a GI50 [6] of 45 µM, a Ki [7] of 35 µM and an inhibition (Saccharomyces cerevisiae) of over 50%. The GI50 [8] was 68 µM, the inhibition [9] was over 50% and the Ki (Acetylcholinesterase [10]) was 105 µM. The GI50 [11] was 79 µM, the Ki (Acetylcholinesterase [12]) was 16.9 µM and the inhibition (Aspergillus oryzae) was 20%. The inhibition (Prunus dulcis) was over 50%, the inhibition [13] was 46% and the Ki [14] was 3.7 µM. It also gave an inhibition [15] of 2%, an inhibition (Helix pomatia) of 16% and an inhibition (Escherichia coli) of 31%. For the same compound, the GI50 [17] was 76 µM, the GI50 [18] was 75 µM and the GI50 [19] was 97 µM.

Compound `OC[C@@H]1[C@@H](O)[C@H](O)[C@@H](O)CN1CCCCCNC(=[Se])Nc1ccc(Br)cc1` has a GI50 [6] of 7 µM, a Ki [7] of 30.7 µM and an inhibition (Saccharomyces cerevisiae) of over 50%. It also gave a Ki (Alpha-mannosidase [21]) of 290 µM, a GI50 [8] of 12 µM and an inhibition [9] of over 50%. The Ki (Acetylcholinesterase [10]) was 5.8 µM, the GI50 [11] was 24 µM and the Ki (Alpha-mannosidase [22]) was 390 µM. It also gave a Km [2] of 330 µM, a Ki (Acetylcholinesterase [12]) of 11.2 µM and an inhibition (Aspergillus oryzae) of 42%. The Ratio [3] was 292, the inhibition (Prunus dulcis) was over 50% and the inhibition [13] was over 50%. The Ki [14] was 1.6 µM, the inhibition [15] was 7% and the inhibition (Helix pomatia) was 18%. The inhibition (Escherichia coli) was 12%, the GI50 [17] was 7.6 µM and the kcat [4] was 0.016 s⁻¹. For the same compound, the GI50 [18] was 27 µM, the Ratio Ki [23] was under 36 and the GI50 [19] was 21 µM. It also gave a Vmax [5] of 96.4 µM/min.

Work on `OC[C@H]1NC[C@H](O)[C@@H](O)[C@@H]1O` [DUVOGLUSTAT] yielded a Ki [24] of 47 µM and a Ki [25] of 25 µM.
